Key:
[1] = Cytotoxicity against mouse EAC cells; type: functional, cell-based, Ehrlich
[2] = Cytotoxicity against mouse EAC cells assessed as nonviable cell at 10 ug/mL relative to doxorubicin; type: functional, Ehrlich
[3] = Cytotoxicity against mouse EAC cells assessed as nonviable cell at 100 ug/mL relative to doxorubicin; type: functional, Ehrlich
[4] = Cytotoxicity against mouse EAC cells assessed as nonviable cell at 25 ug/mL relative to doxorubicin; type: functional, Ehrlich
[5] = Cytotoxicity against mouse EAC cells assessed as nonviable cell at 50 ug/mL relative to doxorubicin; type: functional, Ehrlich
[6] = Mus musculus, Ehrlich, read-out: IC50

COc1cc(N2C(N)=C(C#N)C(c3ccc(C)o3)C3=C2CC(C)(C)CC3=O)cc(OC)c1OC (stereo not given)
IC50 [1, 6]: 216 µM | Activity [2]: 21% | Activity [3]: 50% | Activity [4]: 31% | Activity [5]: 41%

COc1cc(N2C(N)=C(C#N)C(c3c(O)ccc4ccccc34)C3=C2CC(C)(C)CC3=O)cc(OC)c1OC (stereo not given)
IC50 [1, 6]: 143 µM | Activity [2]: 2% | Activity [3]: 90% | Activity [4]: 10% | Activity [5]: 15%

CCOc1cc(C2C(C#N)=C(N)N(c3cc(OC)c(OC)c(OC)c3)C3=C2C(=O)CC(C)(C)C3)ccc1O (stereo not given)
IC50 ([1]; ehrlich): Not Active | Activity [2]: 2% | Activity [3]: 45% | Activity [4]: 10% | Activity [5]: 40%

COc1cc(N2C(N)=C(C#N)C(c3ccc([N+](=O)[O-])cc3)C3=C2CC(C)(C)CC3=O)cc(OC)c1OC (stereo not given)
IC50 [1, 6]: 25 µM | Activity [2]: 10% | Activity [3]: 80% | Activity [4]: 50% | Activity [5]: 70%

COc1cc(N2C(N)=C(C#N)C(c3ccc(C)cc3)C3=C2CC(C)(C)CC3=O)cc(OC)c1OC (stereo not given)
IC50 [1, 6]: 52.9 µM | Activity [2]: 30% | Activity [3]: 90% | Activity [4]: 50% | Activity [5]: 60%

COc1cc(N2C(N)=C(C#N)C(c3ccc(Cl)cc3Cl)C3=C2CC(C)(C)CC3=O)cc(OC)c1OC (stereo not given)
IC50 [1, 6]: 94.7 µM | Activity [2]: 20% | Activity [3]: 100% | Activity [4]: 55% | Activity [5]: 95%

COc1ccccc1C1C(C#N)=C(N)N(c2cc(OC)c(OC)c(OC)c2)C2=C1C(=O)CC(C)(C)C2 (stereo not given)
IC50 [1, 6]: 26.6 µM | Activity [2]: 30% | Activity [3]: 100% | Activity [4]: 65% | Activity [5]: 70%

COc1cc(N2C(N)=C(C#N)C(c3ccc(OC)c4ccccc34)C3=C2CC(C)(C)CC3=O)cc(OC)c1OC (stereo not given)
IC50 ([1]; ehrlich): Not Active | Activity [2]: 10% | Activity [3]: 40% | Activity [4]: 30% | Activity [5]: 40%

COc1cc(C2C(C#N)=C(N)N(c3cc(OC)c(OC)c(OC)c3)C3=C2C(=O)CC(C)(C)C3)ccc1O (stereo not given)
IC50 ([1]; ehrlich): Not Active | Activity [2]: 10% | Activity [3]: 40% | Activity [4]: 20% | Activity [5]: 30%

COc1cc(N2C(N)=C(C#N)C(/C=C/c3ccccc3)C3=C2CC(C)(C)CC3=O)cc(OC)c1OC (stereo not given)
IC50 ([1]; ehrlich): Not Active | Activity [2]: 10% | Activity [3]: 40% | Activity [4]: 30% | Activity [5]: 30%

COc1cc(N2C(N)=C(C#N)C(c3ccccc3Cl)C3=C2CC(C)(C)CC3=O)cc(OC)c1OC (stereo not given)
IC50 ([1]; ehrlich): Not Active | Activity [2]: 10% | Activity [3]: 20% | Activity [4]: 15% | Activity [5]: 20%

COc1ccc(C2C(C#N)=C(N)N(c3cc(OC)c(OC)c(OC)c3)C3=C2C(=O)CC(C)(C)C3)cc1 (stereo not given)
IC50 ([1]; ehrlich): Not Active | Activity [2]: 0% | Activity [3]: 15% | Activity [4]: 1% | Activity [5]: 11%

COc1cc(N2C(N)=C(C#N)C(c3ccccc3)C3=C2CC(C)(C)CC3=O)cc(OC)c1OC (stereo not given)
IC50 ([1]; ehrlich): Not Active | Activity [2]: 0% | Activity [3]: 10% | Activity [4]: 6% | Activity [5]: 8%

COc1cc(N2C(N)=C(C#N)C(c3cccc([N+](=O)[O-])c3)C3=C2CC(C)(C)CC3=O)cc(OC)c1OC (stereo not given)
IC50 ([1]; ehrlich): Not Active | Activity [2]: 5% | Activity [3]: 30% | Activity [4]: 20% | Activity [5]: 30%

COc1cc(N2C(N)=C(C#N)C(c3ccc(OC)c(OC)c3OC)C3=C2CC(C)(C)CC3=O)cc(OC)c1OC (stereo not given)
IC50 ([1]; ehrlich): Not Active | Activity [2]: 20% | Activity [3]: 40% | Activity [4]: 30% | Activity [5]: 30%

COc1cc(N2C(N)=C(C#N)C(c3ccccc3O)C3=C2CC(C)(C)CC3=O)cc(OC)c1OC (stereo not given)
IC50 ([1]; ehrlich): Not Active | Activity [2]: 0% | Activity [3]: 10% | Activity [4]: 0% | Activity [5]: 2%

COc1cccc2c1C(=O)c1c(O)c3c(c(O)c1C2=O)C[C@@](O)(C(=O)CO)C[C@@H]3O[C@H]1C[C@H](N)[C@H](O)[C@H](C)O1 [DOXORUBICIN]
IC50 [1, 6]: 68.1 µM | Activity [2]: 24% | Activity [3]: 100% | Activity [4]: 30% | Activity [5]: 68%

COc1cc(N2C(N)=C(C#N)C(c3ccc(O)cc3)C3=C2CC(C)(C)CC3=O)cc(OC)c1OC (stereo not given)
IC50 [1, 6]: 75.8 µM | Activity [2]: 10% | Activity [3]: 100% | Activity [4]: 20% | Activity [5]: 90%

COc1cc(N2C(N)=C(C#N)C(c3cccs3)C3=C2CC(C)(C)CC3=O)cc(OC)c1OC (stereo not given)
IC50 ([1]; ehrlich): Not Active | Activity [2]: 5% | Activity [3]: 20% | Activity [4]: 10% | Activity [5]: 15%

COc1cc(N2C(N)=C(C#N)C(c3c(OC)ccc4ccccc34)C3=C2CC(C)(C)CC3=O)cc(OC)c1OC (stereo not given)
IC50 ([1]; ehrlich): Not Active | Activity [2]: 0% | Activity [3]: 30% | Activity [4]: 5% | Activity [5]: 10%

COc1cc(N2C(N)=C(C#N)C(c3ccc4c(c3)OCO4)C3=C2CC(C)(C)CC3=O)cc(OC)c1OC (stereo not given)
IC50 ([1]; ehrlich): Not Active | Activity [2]: 10% | Activity [3]: 40% | Activity [4]: 30% | Activity [5]: 40%

— ChEMBL document CHEMBL1156137, “Synthesis and biological evaluation of 2-amino-7,7-dimethyl 4-substituted-5-oxo-1-(3,4,5-trimethoxy)-1,4,5,6,7,8-hexahydro-quinoline-3-carbonitrile derivatives as potential cytotoxic agents” (Bioorg Med Chem Lett, 2009)
